This note sets out measurements from PMC11673078, “DT-13 Mediates Ligand-Dependent Activation of PPARγ Response Elements In Vitro” (Biology, 2024).

This test concerns the target T1, PPARγ (Homo sapiens, UniProt P37231).
T1 construct: gene PPARG
T1 sequence (P37231 231-505 limits assumed): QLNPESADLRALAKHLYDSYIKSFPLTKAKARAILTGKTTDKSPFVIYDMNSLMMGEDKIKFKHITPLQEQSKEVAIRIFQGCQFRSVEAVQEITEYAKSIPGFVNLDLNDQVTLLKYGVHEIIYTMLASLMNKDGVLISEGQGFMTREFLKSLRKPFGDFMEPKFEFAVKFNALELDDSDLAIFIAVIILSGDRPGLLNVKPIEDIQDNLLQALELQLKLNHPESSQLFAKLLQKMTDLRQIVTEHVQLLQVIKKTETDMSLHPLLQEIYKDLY
Briefly: fluorescence polarization competitive binding assay (PolarScreen PPARγ Green).

Each structure is given as a SMILES string.

The IC50 is the point on the concentration scale where inhibition reaches its midpoint. `CCCCC/C=C\C=C\C(O)CCCCCCCC(=O)O` (centres unmarked) [9-hydroxyoctadecadienoic acid] gave an IC50 of 1800 nM. `O=C(Nc1ccccc1)c1cc([N+](=O)[O-])ccc1Cl` [GW9662] gave a 50% inhibitory concentration (IC50) of 22.3 nM.
